Reference: patent US20240327882A1, “Methods and Compositions for Increasing Bio-products in Cyanobacteria using Low-Dose Antibiotics” (priority 2023, published 2024)
Where “and” joins values, the source holds several entries; their conditions need not be identical. Identical values can stand only once. Entries after “also recorded” stand apart in the source; their conditions may differ.

Assays:
[1] = test system: F. diplosiphon strain B481-WT; assay: phycocyanin and chlorophyll α autofluorescence, strain B481-WT; format: cell-based, Fremyella diplosiphon; conditions: for concentrations with enhanced pigment accumulation / concentrations with significant decrease in pigment (phycocyanin and chlorophyll α) autofluorescence: vs untreated control
Experimental: (§1) F. diplosiphon strains, B481-WT obtained from the UTEX algae repository (Austin, TX, United States), and B481-SD (overexpressed strain with the sterol desaturase gene; accession MH329183) were used in this study. Cultures were grown in liquid BG-11/HEPES medium under wide-spectrum red light (650 nm) with continuous shaking at 170 rpm at 28° C. in an Innova 44R shaker (Eppendorf, Hamburg, Germany) for 6 days. Light fluorescence rate was adjusted to 30 μmol m^−2 s^−1 using the model LI-190SA quantum sensor (Li-Cor, United States). These conditions were kept constant during the study.
(§2) Three classes of antibiotics: β-lactams (ampicillin), aminoglycosides (kanamycin), and tetracycline, were tested in this study. Antibiotic stock solutions (25×-100×) were prepared according to the manufacturer's instructions and stored at −20° C. […] Each antibiotic concentration was mixed with 5 ml F. diplosiphon cells adjusted to OD750 nm and 200 μl of each dilution added.
(§3) Cells grown in the absence of antibiotics or nZVIs served as control. In order to minimize the effects of light scattering, every other well was left blank. Plates were sealed with a Breathe-Easy sealing membrane (Sigma-Aldrich, MO, Lot #MKCP8263) to prevent evaporative water loss and decrease the risk of contamination.
(§4) Phycocyanin and chlorophyll α fluorescence in antibiotic-treated and control F. diplosiphon B481-WT and B481-SD were recorded every other day (48 hour intervals) using a microplate reader (BioTek Synergy H1 Microplate Reader, Agilent, USA). While chlorophyll α fluorescence was recorded at an excitation of 420 nm and emission of 680 nm, phycocyanin was measured at excitations of 590 nm, and emissions of 650 nm, see FIGS. 5-20. Maximum PSII quantum yield (Fv/Fo) of treated and controlled F. diplosiphon strains was likewise measured using MINI-PAM (Walz, Effeltrich, Germany) every 48 h for 6 days after incubating in dark for 15 min. The (Fv/Fo) was calculated using the equation

[2] = test system: F. diplosiphon strain B481-WT; format: cell-based, Fremyella diplosiphon
Experimental: (§5) The flasks were placed in an incubator at 37° C. in the dark for 24 h prior to lactate dehydrogenase (“LDH”) measurement. On day 6, 50 μl cultures were transferred to a 96 well clear polystyrene microplate (Corning, Inc., NY), and fluorescence Epi-RGB mode was used to macro-evaluation of antibiotic-treated both strains (Amersham Imager 680, GE Healthcare Bio-Sciences AB, Uppsala, Sweden). Next, 50 μL of the reaction mixture (LDH Cytotoxicity Assay Kit, Thermo Fisher Scientific, United States) was added. After incubation for 30 min. at room temperature in the dark, 50 μL of stock solution was added and mixed gently (Wejnerowski et al., 2018). Absorbance was measured at 490 nm using a microplate reader (BioTek Synergy H1 Microplate Reader, Agilent, United States) after 2 h incubation in the dark at room temperature. The calculated average of the control included cells without antibiotics or nVZI treatment was accepted as healthy cells and results were determined by subtracting LDH activity of the control from treated cells. Microscopic observations of antibiotic-related membrane and cyanobacterial structure alterations were made using a Cytation 5 Cell Imaging Multi-Mode reader (BioTek® Instruments, Inc., Winooski, United States).

[3] = test system: F. diplosiphon strain B481-SD; format: cell-based, Fremyella diplosiphon
Experimental: as §5

[4] = test system: F. diplosiphon strain B481-SD; assay: lactate dehydrogenase (LDH) activity / membrane permeability, strain B481-SD; format: cell-based, Fremyella diplosiphon
[5] = test system: F. diplosiphon strain B481-WT; assay: maximum PSII quantum yield (Fv/Fo), strain B481-WT; format: cell-based, Fremyella diplosiphon
Experimental: as §4

F. diplosiphon = conditions: day 6; strain not stated
[6] = test system: F. diplosiphon strain B481-WT; assay: lactate dehydrogenase (LDH) activity / membrane permeability, strain B481-WT; format: cell-based, Fremyella diplosiphon
Experimental: The assay quantitatively measures released extracellular LDH activity in culture media by enzymatic reaction.
as §1
as §2, with “added. […]” for “added.”
The flasks were placed in an incubator at 37° C. in the dark for 24 h prior to lactate dehydrogenase (“LDH”) measurement. On day 6, 50 μl cultures were transferred to a 96 well clear polystyrene microplate (Corning, Inc., NY), and fluorescence Epi-RGB mode was used to macro-evaluation of antibiotic-treated both strains (Amersham Imager 680, GE Healthcare Bio-Sciences AB, Uppsala, Sweden). […] Absorbance was measured at 490 nm using a microplate reader (BioTek Synergy H1 Microplate Reader, Agilent, United States) after 2 h incubation in the dark at room temperature. The calculated average of the control included cells without antibiotics or nVZI treatment was accepted as healthy cells and results were determined by subtracting LDH activity of the control from treated cells. Microscopic observations of antibiotic-related membrane and cyanobacterial structure alterations were made using a Cytation 5 Cell Imaging Multi-Mode reader (BioTek® Instruments, Inc., Winooski, United States).

[7] = test system: F. diplosiphon strain B481-SD; assay: phycocyanin and chlorophyll α autofluorescence, strain B481-SD; format: cell-based, Fremyella diplosiphon; conditions: for concentrations with significant decrease in pigment (phycocyanin and chlorophyll α) autofluorescence / concentrations with significant increase in pigment (phycocyanin and chlorophyll α) autofluorescence: vs untreated control
Experimental: as §1, §2, §3, §4

[8] = test system: F. diplosiphon B481-SD cultures; assay: GC×GC/TOF-MS analysis of transesterified lipids (FAMEs); format: cell-based, Fremyella diplosiphon; conditions: 0.8 mg/L
Experimental: (§6) Total lipids were extracted and GC×GC/TOF-MS analysis of transesterified lipids in F. diplosiphon treated with optimal ampicillin were performed. B481-SD cultures were grown under optimal conditions and harvested on day 15. Total lipids were extracted using the chloroform: methanol method described by Folch et al. (1957). Briefly, cultures were pelleted and lyophilized, and 15 mL methanol/chloroform (2:1, v/v) solvent was added to 100 mg dry weight of cells. The mixture was homogenized, incubated on ice, and centrifuged at 3000 rpm for 10 min to collect the organic phase. The biomass residue was re-extracted thrice with 4 mL of methanol and 2 mL of chloroform. The lower organic phase was dried in a rotary evaporator (Heidolph, IL, USA), and the total lipid content was estimated by gravimetry.
Simultaneous extraction and transesterification of F. diplosiphon lipids were performed according to the method described by Wahlen et al. (2011). […] The reaction was quenched with 4 ml chloroform, washed in distilled water, and centrifuged at 2000 rpm for phase separation. The chloroform phase containing FAMEs and lipids was transferred to a new flask, and the remaining biomass was washed twice with 2 mL chloroform and mixed. The extracted FAMEs were subjected to high-resolution two-dimensional gas chromatography-time of flight mass spectrometry (GC×GC/TOF-MS) as described by Tabatabai et al. (2018).

[9] = test system: F. diplosiphon strain B481-SD; assay: maximum PSII quantum yield (Fv/Fo), strain B481-SD; format: cell-based, Fremyella diplosiphon
Experimental: as §4

[10] = test system: F. diplosiphon B481-SD cultures; assay: total lipid content by gravimetry; format: cell-based, Fremyella diplosiphon; conditions: 0.8 mg/L; not statistically different (p>0.05)
Experimental: as §6

Microcystis aeruginosa = conditions: cited from earlier work

For NC[C@H]1O[C@H](O[C@H]2[C@H](O)[C@@H](O[C@H]3O[C@H](CO)[C@@H](O)[C@H](N)[C@H]3O)[C@H](N)C[C@@H]2N)[C@H](O)[C@@H](O)[C@@H]1O [kanamycin], the “concentrations with enhanced pigment accumulation” value [1] was 0.2 to 3.2 mg/L, the “concentrations with significant decrease in pigment (phycocyanin and chlorophyll α) autofluorescence” value (shortened to “concentrations with significant decrease”) [1] was 6.4 to 102.5 mg/L and the “concentration above which filament fragmentation and alteration of cell shape were observed” value [2] was over 51.2 mg/L. The “concentration above which filament fragmentation and alteration of cell shape were observed” value [3] was over 51.2 mg/L, the “concentration of maximum LDH activity” value [4] was 0.8 mg/L and the “concentrations with decrease in Fv/Fo ratio” value ([5]; exposure for 6 days) was 1.6 to 102.5 mg/L. For the same molecule, the “concentrations with significant increase in Fv/Fo” value ([5]; vs control group) was 0.2 to 1.6 mg/L, the “concentration of maximal LDH activity (membrane permeability)” value (F. diplosiphon) was 0.8 mg/L and the “concentration of maximum LDH activity” value [6] was 0.4 mg/L. For the same molecule, the “concentrations with significant decrease” value [7] was 6.4 to 102.5 mg/L and the “concentrations with significant increase in pigment (phycocyanin and chlorophyll α) autofluorescence” value [7] was 0.2 to 3.2 mg/L.

In the case of CC1(C)S[C@@H]2[C@H](NC(=O)[C@H](N)c3ccccc3)C(=O)N2[C@H]1C(=O)O [ampicillin], the “monounsaturated fatty acids compared to the control” value [8] is reported as “Enhanced amounts”, the “polyunsaturated fatty acids compared to the control” value [8] is reported as “Enhanced amounts” and the “saturated fatty acids (SFAs) compared to the control” value [8] is reported as “augmentation; also recorded: Enhanced amounts”. For the same molecule, the “methyl ester of hexadecanoic acid (C16: 0) level vs untreated control” value ([8]; p<0.05) was “significantly higher”, the “methyl octadecadienoate (C18: 2) level vs untreated control” value ([8]; p<0.05) was “significantly higher” and the “methyloctadecenoate (C18: 1) level vs untreated control” value ([8]; p<0.05) was “significantly higher”. For the same molecule, the “ç-Linolenic acid (C18: 3) level vs untreated control” value ([8]; p<0.05) was “significantly higher”, the “concentrations with significant increase in Fv/Fo” value ([9]; day 4, vs control) was 0.2 to 3.2 mg/L and the “concentrations with significant decrease” value [1] was 3.2 to 102.5 mg/L. The “concentration above which filament fragmentation and alteration of cell shape were observed” value [2] was “higher than 25.6 mg/L”, the “total lipid content compared to the control” value [10] was “slight increase” and the “concentration of maximum LDH activity” value [6] was 0.4 mg/L. The “concentrations with significant increase in pigment (phycocyanin and chlorophyll α) autofluorescence” value [7] was 0.2 to 25.6 mg/L and 0.2 to 51.2 mg/L.

In the case of CC[C@H]1OC(=O)[C@H](C)[C@@H](O[C@H]2C[C@@](C)(OC)[C@@H](O)[C@H](C)O2)[C@H](C)[C@@H](O[C@@H]2O[C@H](C)C[C@H](N(C)C)[C@H]2O)[C@](C)(O)C[C@@H](C)C(=O)[C@H](C)[C@@H](O)[C@]1(C)O [erythromycin], the “low dosages reported to trigger photosynthetic activity” value (Microcystis aeruginosa) is given as under 20 mg/L.

In the case of CO/N=C(\C(=O)N[C@@H]1C(=O)N2C(C(=O)O)=C(COC(C)=O)CS[C@H]12)c1csc(N)n1 [cefotaxime], the “concentration above which there is no recovery of Fv/Fo” value [9] is reported as “higher than 1.6 mg/L”, the “concentration above which there is no recovery of Fv/Fo” value [5] is reported as over 0.05 mg/L and the “concentrations with significant decrease” value [7] is reported as 0.8 to 102.5 mg/L.

With CN(C)[C@@H]1C(O)=C(C(N)=O)C(=O)[C@@]2(O)C(O)=C3C(=O)c4c(O)cccc4[C@@](C)(O)[C@H]3C[C@@H]12 [tetracycline] the “concentrations with decrease in Fv/Fo ratio” value ([9]; exposure for 6 days) was “higher than 102.5 mg/L”, the “concentrations with significant increase in pigment autofluorescence” value ([1]; day 6) was 0.8 to 12.8 mg/L and the “concentrations with enhanced pigment accumulation” value [1] was 0.8 to 12.8 mg/L. The “concentrations with significant decrease” value [1] was 25.6 to 410 mg/L, the “concentration of maximum LDH activity” value [4] was 0.8 mg/L and the “concentration of maximal LDH activity (membrane permeability)” value (F. diplosiphon) was 0.8 mg/L. For the same molecule, the “concentration of maximum LDH activity” value [6] was 0.4 mg/L, the “concentrations with significant increase in pigment autofluorescence” value ([7]; day 6) was 0.8 to 12.8 mg/L and the “concentrations with significant decrease” value [7] was 102.5 to 410 mg/L. The “concentrations with significant increase in pigment (phycocyanin and chlorophyll α) autofluorescence” value [7] was 0.8 to 12.8 mg/L.
